Experimental data reported in patent US20250250227A1, “AMINO LIPID COMPOUND, PREPARATION METHOD THEREFOR, COMPOSITION THEREOF AND USE THEREOF” (SHENZHEN SHENXIN BIOTECHNOLOGY CO., LTD., priority 2022, published 2025).

Key:
Female BALB/c mice = assay: Performance evaluation of in vivo delivery of Fluc mRNA lipid nanoparticle (IVIS, body and organs); settings: Fluc mRNA LNP; for Liver (fluorescence expression intensity) / Spleen (fluorescence expression intensity): 75 μL IV; for Liver (fluorescence expression intensity) / Spleen (fluorescence expression intensity) / Total flux (fluorescence expression intensity) / (Spleen/Total Flux) * 100%: 6 hours after injection; for Liver (fluorescence expression intensity) / Spleen (fluorescence expression intensity) / Total flux (fluorescence expression intensity): IVIS; for Total flux (fluorescence expression intensity): 75 μL tail vein injection (IV); for (Spleen/Total Flux) * 100% / Multiple of spleen delivery/total delivery to amino lipid compound 118: IV; for Multiple of spleen delivery/total delivery to amino lipid compound 118: relative to amino lipid compound 118
Procedure: Animal preparation: Female BALB/c mice of 6-8 weeks old were selected and raised in an SPF grade breeding room. Animal testing was conducted in strict accordance with the guidelines of national health institutions and animal ethics requirements.
In vivo Delivery: prior to injection of the test LNP formulations, the LNP formulations were gently and repeatedly inverted to thoroughly mix the formulation samples. A corresponding amount of the formulation samples were aspirated with a 1 ml insulin syringe, and the LNP formulations were injected by tail vein injection (IV), with 3 mice in duplicate per formulation. Each mouse was injected with 75 μL of the luciferase mRNA (Fluc mRNA)-encapsulating lipid nanoparticle formulation prepared in Experimental Example 1.
6 hours after injection of LNP formulations, mice were injected with 200 μL D-Luciferin luciferase developing substrate (Catalog No. 122799; Manufacturer: Perkin Elmer). After the substrate was injected, the mice were anesthetized with isoflurane inhalation, and the injection time of luciferase developing substrate was recorded.
The encapsulation efficiency of the lipid nanoparticle encapsulating luciferase mRNA (Fluc mRNA) with a representative amino lipid compound and the fluorescence expression intensity induced by the same are shown in Table 4, with the amino lipid compound 118 as a control.
The multiple of spleen delivery/total delivery of fluorescence expression intensity induced by lipid nanoparticle encapsulating luciferase mRNA (Fluc mRNA) with a representative amino lipid compound to amino lipid compound 118 is shown in Table 5.

[1] = Preparation and characterisation of mRNA-encapsulating lipid nanoparticle (encapsulation efficiency, particle size); assay type: physicochemical; settings: LNP encapsulating Fluc mRNA; Lipid:DSPC:CHO-HP:M-DMG-2000 48:10:40.5:1.5
Procedure: A specified amount of Fluc mRNA stock solution, 0.2 M sodium acetate buffer, and DEPC water were added to a container, and mixed well to obtain a water phase;
The amino lipid compound of the present disclosure, a helper lipid, a structural lipid, and a PEG-lipid were separately dissolved in absolute ethanol to prepare respective solutions at concentrations of 20 mg/mL, 10 mg/mL, 20 mg/mL, and 25 mg/mL, respectively. The above four solutions were pipetted at a molar ratio of Lipid:DSPC:CHO—HP:M-DMG-2000 of 48:10:40.5:1.5, and mixed well to prepare an alcohol phase. • (2) Encapsulation: The water phase and the alcohol phase were injected into a microfluidic chip at a flow rate of water phase: alcohol phase=12 mL/min: 4 mL/min by using a microfluidic preparation instrument (MPE-L2), and encapsulation was carried out at a flow rate of water phase: alcohol phase=9 mL/min: 3 mL/min to obtain mRNA-encapsulating lipid nanoparticle (mRNA-LNP). • (3) Dialysis: The product of step (2) was loaded in a dialysis bag and placed in a Tris Buffer-8% sucrose solution for replacement to remove ingredients such as residual ethanol, unassembled lipids. Dialysis was conducted for 2 h with magnetic stirring at room temperature and under protection from light (dialysate was replaced every 1 hour). • (4) The product of step (3) was sterilized by passing through a […] microporous membrane, and then packaged.
Lipid nanoparticle formulations encapsulating Fluc mRNA were prepared, with a concentration of Fluc mRNA of 0.2 g/L, a mass ratio of Fluc mRNA to Lipid of 1:10, a particle size of 80-130 nm, and a encapsulation efficiency of 85% or higher.
The encapsulation efficiency of the lipid nanoparticle encapsulating luciferase mRNA (Fluc mRNA) with a representative amino lipid compound and the fluorescence expression intensity induced by the same are shown in Table 4, with the amino lipid compound 118 as a control. […]

SMILES | Liver (fluorescence expression intensity) (Female BALB/c mice) | Spleen (fluorescence expression intensity) (Female BALB/c mice) | Total flux (fluorescence expression intensity) (Female BALB/c mice) | (Spleen/Total Flux) * 100% (Female BALB/c mice) [%] | Multiple of spleen delivery/total delivery to amino lipid compound 118 (Female BALB/c mice) | Encapsulation efficiency [1] [%]
CCCCCCC(CCCCCC)OC(=O)CCCCCCCCC(CCCCCCCCC(=O)OC(CCCCCC)CCCCCC)OC(=O)N(CCCCC)CCCN(C)C [Compound 108] | 6.84E+07 | 1.02E+06 | 3.40E+08 | 0.30 | 0.88 | 91.78
CCCCCCC(CCCCCC)OC(=O)CCCCCCCCC(CCCCCCCCC(=O)OC(CCCCCC)CCCCCC)OC(=O)N(CCCCCC)CCCN(C)C [Compound 109] | 5.22E+07 | 8.53E+05 | 2.80E+08 | 0.30 | 0.90 | 92.87
CCCCCCCN(CCCN(C)C)C(=O)OC(CCCCCCCCC(=O)OC(CCCCCC)CCCCCC)CCCCCCCCC(=O)OC(CCCCCC)CCCCCC [Compound 110] | 5.83E+07 | 8.71E+05 | 2.44E+08 | 0.36 | 1.05 | 90.82
CCCCCCCC(=O)N(CCCN(C)C)C(CCCCCCCCC(=O)OC(CCCCCC)CCCCCC)CCCCCCCCC(=O)OC(CCCCCC)CCCCCC [Compound 118, reference compound] | 1.88E+08 | 2.19E+06 | 6.46E+08 | 0.34 | 1.00 | 90.53
CC/C=C\COC(=O)CCCN(CCCN(C)C)C(=O)OC(CCCCCCCCC(=O)OC(CCCCCC)CCCCCC)CCCCCCCCC(=O)OC(CCCCCC)CCCCCC [Compound 275] | 1.23E+08 | 8.84E+06 | 8.16E+08 | 1.08 | 3.19 | 90.61
CCC/C=C\COC(=O)CCCN(CCCN(C)C)C(=O)OC(CCCCCCCCC(=O)OC(CCCCCC)CCCCCC)CCCCCCCCC(=O)OC(CCCCCC)CCCCCC [Compound 276] | 1.43E+08 | 4.67E+06 | 7.70E+08 | 0.61 | 1.78 | 88.92
CC/C=C\CCOC(=O)CCCN(CCCN(C)C)C(=O)OC(CCCCCCCCC(=O)OC(CCCCCC)CCCCCC)CCCCCCCCC(=O)OC(CCCCCC)CCCCCC [Compound 277] | 7.98E+07 | 8.42E+06 | 3.14E+08 | 2.68 | 7.89 | 91.00
CCCC/C=C\CCOC(=O)CCCN(CCCN(C)C)C(=O)OC(CCCCCCCCC(=O)OC(CCCCCC)CCCCCC)CCCCCCCCC(=O)OC(CCCCCC)CCCCCC [Compound 279] | 9.55E+07 | 4.57E+06 | 6.29E+08 | 0.73 | 2.14 | 92.43
CC/C=C\COC(=O)CCCCCN(CCCN(C)C)C(=O)OC(CCCCCCCCC(=O)OC(CCCCCC)CCCCCC)CCCCCCCCC(=O)OC(CCCCCC)CCCCCC [Compound 284] | 3.29E+07 | 5.20E+06 | 3.42E+08 | 1.52 | 4.47 | 91.63
